This assay concerns endothelial dysfunction induced by DENV NS1 in HPMEC monolayers. As to the kind of experiment: Effect of cyclodextrins on endothelial dysfunction induced by DENV NS1 (TEER of HPMEC monolayers in transwells). Format: cell-based, human. The following applies: DENV NS1 at 10 micrograms/mL, TEER 2 to 10 hours post-treatment, AUC vs DENV NS1-only control. The protocol: The present invention is based on the evaluation of the in vitro efficacy against DENV NS1-mediated pathogenesis of a series of different CDs that display variable cavity sizes as well as different degrees and types of substitution. In an in vitro model of endothelial permeability, CDs, at concentrations with no anticoagulant effects, were added to human pulmonary microvascular endothelial cells (HPMECs) treated with DENV NS1 to induce endothelial hyperpermeability.
Endothelial disruption (hyperpermeability) was quantified by measuring transendothelial electrical resistance (TEER). […] Sulfate group substitution of cyclodextrins contributed to the anti-leak activity.
The method is suitable to study the effect of NS1 from DENV from all serotypes and NS1 from other flaviviruses. HPMEC monolayers (6×10^4 cells/transwell) cultured in transwell inserts for three days were treated with the CD compounds then treated or not with DENV NS1 at 10 micrograms/mL. Recombinant NS1 protein from DENV (Strain 16681) weas certified to be endotoxin-free and >95% purity (Native Antigen, United Kingdom). TEER was measured from 2 to 10 hours post-treatment. The area under the curve of the different treatments+DENV NS1 was compared by one-way ANOVA plus Dunnett's test to the DENV NS1-only control.
Randomly substituted alpha-cyclodextrin sulfate sodium salt (average degree of substitution: ˜12) was used as specified according to Example 1. […] A) HPMEC monolayers (6×10e4 cells/transwell) cultured in transwell inserts for three days were treated with the compounds in the presence or absence of DENV NS1 at 10 ug/mL. TEER was measured from 2 to 10 hours post-treatment. Relative TEER was calculated as the ratio between resistance values obtained in the different treatments and medium-only controls. B) Area under the curve of the different treatments was compared by one-way ANOVA plus Dunnett's test to the DENV NS1control. P-values are summarized with number of asterisks as follows: *p≤0.05, **p≤0.01, ***p≤0.001, ****p≤0.0001. The effective dose of cyclodextrin for hindering endothelial leakage was 10 micrograms/mL.
As for “2,3-di-OH-6-sulfo-gamma cyclodextrin sodium salt”, the “effective dose of cyclodextrin for hindering endothelial leakage / hyperpermeability” value amounted to 10 micrograms/mL.

For the substance “2,3-dimethyl-6-sulfate-alpha cyclodextrin sodium salt”, the “effective dose of cyclodextrin for hindering endothelial leakage / hyperpermeability” value was 250 micrograms/mL.

Consider “2,3-dimethyl-6-sulfate-beta cyclodextrin sodium salt”, for which the “effective dose of cyclodextrin for hindering endothelial leakage / hyperpermeability” value was determined as 100 micrograms/mL.

In the case of “2,3-dimethyl-6-sulfate-gamma cyclodextrin sodium salt”, the “effective dose of cyclodextrin for hindering endothelial leakage / hyperpermeability” value was determined as 100 micrograms/mL.

As to “2-hydroxypropyl-beta-cyclodextrin [reference compound]”, the “effective dose of cyclodextrin for hindering endothelial leakage / hyperpermeability” value is recorded as 1000 micrograms/mL.

2-hydroxypropyl-gamma-cyclodextrin: the “effective dose of cyclodextrin for hindering endothelial leakage / hyperpermeability” value came out at 1000 micrograms/mL.

For alpha-cyclodextrin sulfate sodium salt, the “effective dose of cyclodextrin for hindering endothelial leakage / hyperpermeability” value amounted to 10 micrograms/mL.

Turning to beta cyclodextrin sulfate sodium salt, the “effective dose of cyclodextrin for hindering endothelial leakage / hyperpermeability” value was 10 micrograms/mL.

Regarding gamma cyclodextrin sulfate sodium salt, the “effective dose of cyclodextrin for hindering endothelial leakage / hyperpermeability” value came to 10 micrograms/mL.

Turning to “sulfobutlyether beta cyclodextrin sodium salt”, the “effective dose of cyclodextrin for hindering endothelial leakage / hyperpermeability” value is recorded as 100 micrograms/mL.

On to “sulfopropylether alpha cyclodextrin sodium salt”, for which the “effective dose of cyclodextrin for hindering endothelial leakage / hyperpermeability” value came to 1000 micrograms/mL.

With “sulfopropylether beta cyclodextrin sodium salt”, the “effective dose of cyclodextrin for hindering endothelial leakage / hyperpermeability” value stood at 1000 micrograms/mL.

For the substance “sulfopropylether gamma cyclodextrin sodium salt”, the “effective dose of cyclodextrin for hindering endothelial leakage / hyperpermeability” value is reported as 1000 micrograms/mL.
